The source of these data is USRE31731E, “Herbicidal 4-trifluoromethyl-4-nitrodiphenyl ethers” (priority 1978, dated 1984).

Molecules are shown by their SMILES.

Assay type in all cases: in vivo
Assay [1] relates to Monocots. As to the kind of experiment: Herbicidal activity, postemergence, monocot weeds (Table II). Conditions: post-emergence, 336 h, about 2 weeks, read-out: % control (percent of plants killed); for pest or weed control at 2241.7 g/ha: 2 lb./A.; for pest or weed control at 4483.4 g/ha: 4 lb./A.; for pest or weed control at 11208.5 g/ha: 10 lb./A. The procedure:
(§1) Using the procedure described below, diphenyl ethers were evaluated for control of the following weeds: […]
(§2) barnyardgrass (Echinochloa crusgalli) crabgrass (Digitaria spp.) nutsedge (Cyperus esculentus)
(§3) At 2 and 4 pounds per acre:
(§4) **Bermudagrass (Cynodon dactylon)
(§5) *downy brome (Bromus tectorum) foxtail (Setaria faberii)
(§6) Johnsongrass (Sorghum halepense) […]
(§7) quackgrass (Agropyron repens)
(§8) *ryegrass (Lolium perenne)
(§9) *yellow millet (Panicum miliaceum)
(§10) The following test procedure is employed. Seeds of selected crops and weeds are planted in soil in flats. For preemergence tests, the flats are treated with the test compound immediately after the planting. For postemergence tests, the seeds are allowed to germinate, and after 2 weeks the flats are treated with the test compound. The compound to be evaluated is dissolved in acetone, diluted with water, and sprayed over the flats using a carrier volume equivalent to 50 gallons per acre at the rate of application (pounds per acre, lb/A.) specified in the tables. About 2 weeks after the application of the test compound, the state of growth of the plants is observed and the phytotoxic effect of the compound is evaluated. Table II gives the average percent control achieved by the test compounds in terms of the percent of the plants which are killed by the compounds.

Assay [2] concerns Monocots. Put plainly: Herbicidal activity, preemergence, monocot weeds (Table II). The settings on record: pre-emergence, 336 h, about 2 weeks, read-out: % control (percent of plants killed); for pest or weed control at 2241.7 g/ha: 2 lb./A.; for pest or weed control at 4483.4 g/ha: 4 lb./A.; for pest or weed control at 11208.5 g/ha: 10 lb./A. On the procedure:
as §1, §2, §3, §4, §5, §6, §7, §8, §9, §10

The subject of assay [3] is Dicots. As to the kind of experiment: Herbicidal activity, postemergence, dicot weeds (Table II). Conditions: post-emergence, 336 h, about 2 weeks, read-out: % control (percent of plants killed); for pest or weed control at 2241.7 g/ha: 2 lb./A.; for pest or weed control at 4483.4 g/ha: 4 lb./A.; for pest or weed control at 11208.5 g/ha: 10 lb./A. On the procedure: as §1
(§11) bindweed (Convolvulus arvensis) curly dock (Remex crispus) velvetleaf (Abutilon theophrasti) wild mustard (Brassica haber)
(§12) At 2 and 4 pounds per acre: […]
(§13) cocklebur (Xanthium pensylvanicum)
(§14) **coffeeweed (Sesbania macrocarpa)
(§15) *curly dock (Rumex crispus)
(§16) *lambsquarters (Chenopodium album) morningglory (Ipomoea purpurea)
(§17) *pigweed (Amaranthus retroflexus)
(§18) **ragweed (Ambrosia artemisiifolia)
(§19) *smartweed (Polygonum pensylvanicum)
(§20) **tomato (Lycopersicon esculentum)
(§21) *wild carrot (Daucus carota)
(§22) *wild mustard (Brassica haber)
as §10

The test system of assay [4] is Dicots. As to the kind of experiment: Herbicidal activity, preemergence, dicot weeds (Table II). Conditions: pre-emergence, 336 h, about 2 weeks, read-out: % control (percent of plants killed); for pest or weed control at 2241.7 g/ha: 2 lb./A.; for pest or weed control at 4483.4 g/ha: 4 lb./A.; for pest or weed control at 11208.5 g/ha: 10 lb./A. On the procedure:
as §1, §11, §12, §13, §14, §15, §16, §17, §18, §19, §20, §21, §22, §10

For the molecule `CC(Oc1cc(Oc2ccc(C(F)(F)F)cc2Cl)ccc1[N+](=O)[O-])C(=O)O` (stereo not drawn) [Example 25, 2-Chloro-α,α,α-trifluoro-p-tolyl-3-(1-carboxyethoxy)-4-nitrophenyl ether], the pest or weed control at 2241.7 g/ha in the assay on Monocots [1] worked out at 88%; with Monocots [2], 40%; in the assay on Dicots [3], 100%; with Dicots [4], 93%. Also, the pest or weed control at 4483.4 g/ha with Monocots [1] is 97%; in the assay with Monocots [2], 87%; with Dicots [3], 100%; in the assay with Dicots [4], 88%.

For `N#Cc1cc(Oc2ccc(C(F)(F)F)cc2Cl)ccc1[N+](=O)[O-]` [Example 47, 2-Chloro-α,α,α-trifluoro-p-tolyl-3-cyano-4-nitrophenyl ether], the pest or weed control at 2241.7 g/ha in the assay on Monocots [1] is 24%; in the assay with Monocots [2], 80%; in the assay on Dicots [3], 84%; in the assay with Dicots [4], 80%. In addition, the pest or weed control at 4483.4 g/ha with Monocots [1] amounted to 11%; in the assay on Monocots [2], 61%; in the assay on Dicots [3], 72%; in the assay with Dicots [4], 40%.

Consider `O=[N+]([O-])c1ccc(Oc2ccc(C(F)(F)F)cc2Cl)cc1NCCO` [Example 22], for which the pest or weed control at 2241.7 g/ha with Monocots [1] came out at 70%; with Monocots [2] it was 63%; with Dicots [3], 100%; in the assay on Dicots [4], 77%. Besides, the pest or weed control at 4483.4 g/ha in the assay with Monocots [1] came to 60%; in the assay with Monocots [2], 72%; in the assay on Dicots [3], 99%; with Dicots [4], 98%.

Regarding `CS(=O)(=O)CCOc1cc(Oc2ccc(C(F)(F)F)cc2Cl)ccc1[N+](=O)[O-]` [Example 42], the pest or weed control at 2241.7 g/ha with Monocots [1] worked out at 63%; with Monocots [2] it was 83%; in the assay on Dicots [3], 88%; in the assay on Dicots [4] it was 60%. Moreover, the pest or weed control at 4483.4 g/ha in the assay on Monocots [1] came out at 38%; with Monocots [2], 62%; in the assay with Dicots [3] it was 98%; with Dicots [4], 80%.

`O=[N+]([O-])c1ccc(Oc2ccc(C(F)(F)F)cc2Cl)cc1O` [Example 10, 2-Chloro-α,α,α-trifluoro-p-tolyl-3-hydroxy-4-nitrophenyl ether]: the pest or weed control at 2241.7 g/ha came to 17% with Monocots [1], 66% in the assay with Monocots [2], 85% with Dicots [3] and 70% in the assay on Dicots [4]. Besides, the pest or weed control at 4483.4 g/ha with Monocots [1] is 67%; in the assay on Monocots [2], 70%; in the assay on Dicots [3] it was 98%; in the assay with Dicots [4], 100%.

In the case of `O=C(O)COc1cc(Oc2ccc(C(F)(F)F)cc2Cl)ccc1[N+](=O)[O-]` [Example 23], the pest or weed control at 2241.7 g/ha in the assay on Monocots [1] was determined as 71%; in the assay with Monocots [2], 55%; in the assay on Dicots [3] it was 100%; with Dicots [4], 87%. In addition, the pest or weed control at 4483.4 g/ha in the assay on Monocots [1] is 82%; in the assay on Monocots [2], 90%; with Dicots [3], 100%; in the assay with Dicots [4], 64%.

Regarding `O=[N+]([O-])c1ccc(Oc2ccc(C(F)(F)F)cc2Cl)cc1OCC(O)CO` (stereo not drawn) [Example 39, 2-chloro-α,α,α-trifluoro-p-tolyl-3-(2,3-dihydroxypropoxy)-4-nitrophenyl ether], the pest or weed control at 2241.7 g/ha came out at 61% in the assay on Monocots [1], 77% in the assay on Monocots [2], 100% in the assay with Dicots [3] and 80% in the assay with Dicots [4]. For the same molecule, the pest or weed control at 4483.4 g/ha with Monocots [1] was found to be 64%; in the assay with Monocots [2], 65%; in the assay on Dicots [3], 98%; with Dicots [4], 99%.

Consider `COc1cc(Oc2ccc(C(F)(F)F)cc2Cl)ccc1[N+](=O)[O-]` [Example 2], for which the pest or weed control at 4483.4 g/ha in the assay on Monocots [1] turned out to be 99%; in the assay on Monocots [2], 97%; in the assay with Dicots [3], 100%; with Dicots [4], 80%. The pest or weed control at 11208.5 g/ha in the assay on Monocots [1] was determined as 100%; in the assay on Monocots [2], 97%; in the assay with Dicots [3], 100%; in the assay on Dicots [4] it was 100%.

Turning to `Nc1cc(Oc2ccc(C(F)(F)F)cc2Cl)ccc1[N+](=O)[O-]` [Example 27], the pest or weed control at 2241.7 g/ha in the assay with Monocots [1] was 99%; in the assay with Monocots [2] it was 74%; with Dicots [3], 100%; in the assay with Dicots [4] it was 90%. The pest or weed control at 4483.4 g/ha with Monocots [1] turned out to be 82%; with Monocots [2] it was 76%; in the assay on Dicots [3], 100%; in the assay with Dicots [4], 98%.

For the molecule `O=[N+]([O-])c1ccc(Oc2ccc(C(F)(F)F)cc2Cl)cc1OCC1CO1` (centres unmarked) [Example 38], the pest or weed control at 2241.7 g/ha in the assay on Monocots [1] was 51%; in the assay with Monocots [2], 62%; with Dicots [3] it was 58%; with Dicots [4], 68%. Further, the pest or weed control at 4483.4 g/ha in the assay on Monocots [1] came out at 43%; with Monocots [2] it was 47%; in the assay with Dicots [3], 98%; in the assay on Dicots [4], 86%.

As for `C#CCCOc1cc(Oc2ccc(C(F)(F)F)cc2Cl)ccc1[N+](=O)[O-]` [Example 29], the pest or weed control at 2241.7 g/ha with Monocots [1] amounted to 97%; with Monocots [2], 66%; with Dicots [3] it was 100%; in the assay on Dicots [4], 84%. The pest or weed control at 4483.4 g/ha was 79% in the assay on Monocots [1], 74% with Monocots [2], 100% in the assay with Dicots [3] and 73% in the assay with Dicots [4].

Take `CCOc1cc(Oc2ccc(C(F)(F)F)cc2)ccc1[N+](=O)[O-]` [Example 1]: the pest or weed control at 4483.4 g/ha in the assay on Monocots [1] was 57%; in the assay with Monocots [2], 76%; in the assay on Dicots [3], 58%; with Dicots [4] it was 45%. For the same molecule, the pest or weed control at 11208.5 g/ha in the assay on Monocots [1] worked out at 82%; with Monocots [2], 42%; with Dicots [3] it was 100%; in the assay on Dicots [4], 35%.

Regarding `CC#CCCOc1cc(Oc2ccc(C(F)(F)F)cc2Cl)ccc1[N+](=O)[O-]` [Example 14], the pest or weed control at 2241.7 g/ha in the assay with Monocots [1] turned out to be 91%; with Monocots [2], 30%; in the assay on Dicots [3], 100%; in the assay with Dicots [4], 22%. Moreover, the pest or weed control at 4483.4 g/ha is 61% in the assay with Monocots [1], 64% in the assay on Monocots [2], 94% in the assay on Dicots [3] and 78% in the assay with Dicots [4].

Consider `Cc1cc(Oc2ccc(C(F)(F)F)cc2C#N)ccc1[N+](=O)[O-]` [Example 9], for which the pest or weed control at 2241.7 g/ha in the assay on Monocots [1] was found to be 82%; in the assay with Monocots [2], 81%; in the assay with Dicots [3] it was 75%; with Dicots [4], 67%. The pest or weed control at 4483.4 g/ha with Monocots [1] amounted to 97%; with Monocots [2], 90%; in the assay with Dicots [3], 81%; with Dicots [4] it was 66%. The pest or weed control at 11208.5 g/ha with Monocots [1] came to 100%; in the assay on Monocots [2] it was 99%; in the assay with Dicots [3], 100%; in the assay with Dicots [4], 92%.

With `CCOc1cc(Oc2ccc(C(F)(F)F)cc2C#N)ccc1[N+](=O)[O-]` [Example 7, 2-Cyano-α,α,α-trifluoro-p-tolyl-3-ethoxy-4-nitrophenyl ether], the pest or weed control at 2241.7 g/ha in the assay with Monocots [1] turned out to be 82%; with Monocots [2], 65%; with Dicots [3], 80%; with Dicots [4], 54%. Besides, the pest or weed control at 4483.4 g/ha was 75% in the assay with Monocots [1], 65% with Monocots [2], 77% in the assay on Dicots [3] and 57% in the assay with Dicots [4]. In addition, the pest or weed control at 11208.5 g/ha came out at 100% in the assay on Monocots [1], 61% with Monocots [2], 100% with Dicots [3] and 60% in the assay on Dicots [4].
